According to ChEMBL document CHEMBL5113402, “Inhibition of cytochrome P450 monooxygenase-catalyzed oxylipin formation by flavonoids: Evaluation of structure-activity relationship towards CYP4F2-selective inhibitors” (Eur J Med Chem, 2022):
Converted amounts (≈) assume the structure as drawn.

Key:
[1] = Plasma protein binding in human assessed as bound fraction by rapid equilibrium dialysis assay; assay type: ADME, cell-free; details: read-out: PPB
[2] = biological target: T1, CYP450 (20-HETE formation) (Homo sapiens, UniProt P04798+P05177+P05181+P08684+P10632+P10635+P11509+P11712+P13584+P20813+P20815+P20853+P24462+P24903+P33260+P33261+P51589+P78329+P98187+Q02928+Q08477+Q16678+Q16696+Q5TCH4+Q6VVX0+Q7Z449+Q8TAV3+Q96SQ9+Q9HB55); assay: Inhibition of CYP450 in human liver microsomes assessed as inhibition of 20-HETE formation at 10 uM in presence of arachidonic acid and NADPH by multi-enzyme assay based LC-MS/MS analysis relative to control; assay type: ADME, Microsome; details: probe arachidonic acid
[3] = Drug recovery in human HCT-116 cells incubated for 24 hrs; assay type: ADME, cell-based; details: read-out: Drug recovery
[4] = Solubility of the compound in phospahte-buffered saline buffer at pH 7.4 by shake flask method; assay type: physicochemical; details: phosphate-buffered saline
[5] = Inhibition of CYP450 in B6C3F1 mouse liver microsomes assessed as inhibition of 20-HETE formation in presence of arachidonic acid and NADPH by multi-enzyme assay based LC-MS/MS analysis; assay type: ADME, Microsome
[6] = Octanol-water partition coefficient, logP of the compound incubated for 1 hr by HPLC analysis; assay type: physicochemical
[7] = Inhibition of CYP450 in Sprague-Dawley rat liver microsomes assessed as inhibition of 20-HETE formation in presence of arachidonic acid and NADPH by multi-enzyme assay based LC-MS/MS analysis; assay type: ADME, Microsome
Cytochrome P450 4F2 = biological target: T2, Cytochrome P450 4F2 (Homo sapiens, UniProt P78329); assay: Inhibition of recombinant human CYP4F2 expressed in baculovirus-infected insect cells in presence of arachidonic acid and NADPH incubated for 15 mins by jump-dilution assay relative to control; assay type: ADME
T2 sequence (P78329 whole entry): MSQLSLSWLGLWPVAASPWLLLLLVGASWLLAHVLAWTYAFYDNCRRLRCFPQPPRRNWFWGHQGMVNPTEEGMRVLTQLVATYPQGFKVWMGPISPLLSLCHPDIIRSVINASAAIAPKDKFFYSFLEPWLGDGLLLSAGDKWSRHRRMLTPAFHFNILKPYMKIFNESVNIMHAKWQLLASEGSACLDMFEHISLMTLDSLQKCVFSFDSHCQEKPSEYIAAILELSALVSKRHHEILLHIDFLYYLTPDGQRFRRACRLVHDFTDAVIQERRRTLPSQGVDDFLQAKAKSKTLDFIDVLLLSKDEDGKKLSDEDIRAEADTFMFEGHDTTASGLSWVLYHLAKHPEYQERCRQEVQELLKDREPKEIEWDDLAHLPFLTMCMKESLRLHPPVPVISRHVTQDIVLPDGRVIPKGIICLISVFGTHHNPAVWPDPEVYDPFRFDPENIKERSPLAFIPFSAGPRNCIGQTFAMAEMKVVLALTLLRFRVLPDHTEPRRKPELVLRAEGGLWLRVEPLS

CYP2J2 = biological target: T3, CYP2J2 (Homo sapiens, UniProt P51589); assay: Inhibition of recombinant human CYP2J2 expressed in baculovirus-infected insect cells at 50 uM incubated for 15 mins in presence of arachidonic acid and NADPH by jump-dilution assay relative to control; assay type: ADME; details: probe arachidonic acid
T3 sequence (P51589 whole entry): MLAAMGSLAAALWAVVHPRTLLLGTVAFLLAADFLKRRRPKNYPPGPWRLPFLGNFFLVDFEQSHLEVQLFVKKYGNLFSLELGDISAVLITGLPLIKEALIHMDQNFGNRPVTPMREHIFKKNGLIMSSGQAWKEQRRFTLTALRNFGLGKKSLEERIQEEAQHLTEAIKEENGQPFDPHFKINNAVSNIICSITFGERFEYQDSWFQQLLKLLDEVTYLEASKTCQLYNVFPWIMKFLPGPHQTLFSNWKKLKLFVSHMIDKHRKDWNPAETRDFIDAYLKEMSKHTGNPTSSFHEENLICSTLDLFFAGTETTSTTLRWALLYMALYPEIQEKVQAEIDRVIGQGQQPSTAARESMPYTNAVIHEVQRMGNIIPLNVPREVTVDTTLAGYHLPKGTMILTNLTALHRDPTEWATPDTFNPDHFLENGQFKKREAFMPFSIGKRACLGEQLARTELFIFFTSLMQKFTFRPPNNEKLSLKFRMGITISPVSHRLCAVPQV

Cytochrome P450 2J2 = biological target: T4, Cytochrome P450 2J2 (Homo sapiens, UniProt P51589); assay: Inhibition of recombinant human CYP2J2 expressed in baculovirus-infected insect cells in presence of arachidonic acid and NADPH incubated for 15 mins by jump-dilution assay relative to control; assay type: ADME
T4 sequence (P51589 whole entry): T3 sequence (P51589 whole entry)

[8] = biological target: CYP450 (EpETrE formation) (Homo sapiens, UniProt P04798+P05177+P05181+P08684+P10632+P10635+P11509+P11712+P13584+P20813+P20815+P20853+P24462+P24903+P33260+P33261+P51589+P78329+P98187+Q02928+Q08477+Q16678+Q16696+Q5TCH4+Q6VVX0+Q7Z449+Q8TAV3+Q96SQ9+Q9HB55); assay: Inhibition of CYP450 in human liver microsomes assessed as inhibition of EpETrE formation at 10 uM in presence of arachidonic acid and NADPH by multi-enzyme assay based LC-MS/MS analysis relative to control; assay type: ADME, Microsome; details: probe arachidonic acid
[9] = biological target: T1, CYP450 (20-HETE formation); assay: Inhibition of CYP450 in human liver microsomes assessed as inhibition of 20-HETE formation in presence of arachidonic acid and NADPH by multi-enzyme assay based LC-MS/MS analysis relative to control; assay type: ADME, Microsome; details: probe arachidonic acid
[10] = biological target: T1, CYP450 (20-HETE formation); assay: Inhibition of CYP450 in human HCT-116 cells assessed as 20-HETE formation in presence of arachidonic acid incubated for 15 mins by multi-enzyme assay based LC-MS/MS analysis; assay type: ADME, cell-based; details: probe arachidonic acid
Homo sapiens = organism: Homo sapiens; assay: Selectivity index, log ratio of Inhibition of CYP450 in human liver microsomes assessed as inhibition of EpETrE formation in presence of arachidonic acid to Inhibition of CYP450 in human liver microsomes assessed as inhibition of 20-HETE formation in presence of arachidonic acid
[11] = Inhibition of CYP450 in Sprague-Dawley rat liver microsomes assessed as inhibition of 20-HETE formation in presence of arachidonic acid and NADPH by multi-enzyme assay based LC-MS/MS analysis relative to control; assay type: ADME, Microsome
[12] = Inhibition of CYP450 in B6C3F1 mouse liver microsomes assessed as inhibition of 20-HETE formation in presence of arachidonic acid and NADPH by multi-enzyme assay based LC-MS/MS analysis relative to control; assay type: ADME, Microsome
[13] = Drug recovery in human liver microsomes assessed as NADPH-fortified oxidative metabolism recovery in presence of arachidonic acid incubated for 30 mins; assay type: ADME, Microsome; details: read-out: Drug recovery

- fraction unbound [1]: < 0.05
- inhibition at 10 µM [2]: 53%
- remaining at 24 h [3]: 89%
- solubility thermodynamic [4]: 3.4 µM (≈ 0.987 µg/mL)
- IC50 [5]: 7.6 µM
- logP at 1 h [6]: 4.06
- IC50 [7]: 4.3 µM
- IC50 (Cytochrome P450 4F2): 0.76 µM
- inhibition at 0.25 h, 50 µM (CYP2J2): < 25%
- IC50 (Cytochrome P450 2J2): 50 µM
- inhibition at 10 µM [8]: < 15%
- IC50 [9]: 2.8 µM
- IC50 at 15 min [10]: 1.1 µM
- log(ratio) (Homo sapiens): 0.58
- IC50 [11]: 1.4 µM
- IC50 [12]: 0.71 µM
- remaining at 0.5 h [13]: 87%
SMILES: O=c1cc(-c2ccc(C(F)(F)F)cc2)oc2ccccc12
